Measurements from patent US5750531A, “Pyrimidine derivatives and processes for the preparation thereof” (Yuhan Corporation, priority 1994, dated 1998).

How the values were obtained:
proton pump = settings: in words, background; cited from earlier work
[1] = biological target: proton pump(H^+ /K^+ ATPase); assay: Inhibition of proton pump(H^+ /K^+ ATPase) activity; assay type: biochemical; settings: pH 6.0, 37° C., 30 minutes preincubation and 30 minutes reaction; read-out: IC50 Test compound
Procedure, shortened: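 Enzyme was preincubated with compound at five concentrations for 30 min at 37° C in Tris-HCl pH 6.0 with Mg2+, K+ and NH4Cl. Reaction ran 30 min at 37° C with ATP and was stopped with trichloroacetic acid. K+-stimulated inorganic phosphate release gave IC50 by Litchfield-Wilcoxon.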

H^+ /K^+ -ATPase = assay: Reversibility Test (Dilution and Washout method, gastric vesicles); assay type: biochemical; settings: compound 50 μM
Description: Test 3. Reversibility Test
Gastric vesicles were prepared by the same method as in Experiment 4-1 of WO 94/14795. The inhibition mechanism of proton pump activity by the present invention compound was tested in accordance with the so-called Dilution and Washout method [see e.g., D. J. Keeling, et al., Biochemical Pharmacology, 42(1), 123-130(1991)].
Namely, test tubes were divided into two group, Groups 1 and 2. Each group was divided into four subgroups. 90 μl of 5 mM Pipes/Tris buffer(pH 7.4) and 10 μl of DMSO were added to subgroups 1 and 2 of each group. 90 μl of 5 mM Pipes/Tris buffer(pH 7.4) and 10 μl of the compound prepared in Example 43(50 μM) were added to subgroups 3 and 4 of each group. To all two groups, was added 100 μl of lyophilized vesicles at the concentration of 100 μg protein/ml and then preincubated at 37° C. for 15 minutes.
2 mM MgCl2 was added to subgroups 1 and 3 of Group 1. 2 mM MgCl2 and 10 mM KCl were added to subgroups 2 and 4 of Group 1. 3 mM ATP was added to all subgroups of Group 1 until the final volume became 500 μl. After incubation for 30 minutes, the inhibition of H^+ /K^+ -ATPase activity by the test compound was measured.
After preincubation as described above, each subgroup of Group 2 was diluted with 50-fold volume of 5 mM Pipes/Tris buffer(pH7.4) and then centrifuged for 60 minutes by means of Beckman ultracentrifuge(Model L8-80). The supernatant was discarded and washed out by 10 ml of 5 mM Pipes/Tris buffer(ph 7.4). The resulting pellet was suspended with 5 mM Pipes/Tris buffer (pH7.4) until the volume became the same as the preincubation volume.
Thereafter, in accordance with the treatment to Group 1, each subgroup of Group 2 was treated with 2 mM MgCl2, 10 mM KCl and 3 mM ATP. And the final volume of each subgroup of Group 2 was made to be 500 μl.
And it was further measured in accordance with the same procedures as above, except the compound prepared in Example 75 was used as a test compound.

gastric secretion = assay: Inhibition of gastric secretion (pylorus ligation, Shay method); assay type: in vivo, Male Sprague-Dawley rats; settings: 20 mg/kg intraduodenally, 5 hours; for Rel. Conc.: acid concentration relative to omeprazole; for Relative Acid Output: acid output relative to omeprazole; for Rel. Vol.: gastric juice volume relative to omeprazole
Procedure, shortened: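 Rats under ether anaesthesia had the pylorus ligated, and the stomach was removed 5 h later. Gastric juice was centrifuged at 1,000 g, and its volume and acidity were measured. Relative volume, relative acid concentration and relative acid output […] were then calculated.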

SMILES	reversibility of proton pump inhibition (proton pump)	IC50 [1] [nM]	inhibition of H^+ /K^+ ATPase activity, after Dilution & Washout (H^+ /K^+ -ATPase) [%]	inhibition of H^+ /K^+ ATPase activity, before Dilution & Washout (H^+ /K^+ -ATPase) [%]	Rel. Conc. (gastric secretion)	Relative Acid Output (gastric secretion)	Rel. Vol. (gastric secretion)
COc1ccc2[nH]c([S+]([O-])Cc3ncc(C)c(OC)c3C)nc2c1 (stereo not shown) [Omeprazole, omeprazole, reference compound]	irreversible	–	–	–	–	–	–
Cc1nc(N2CCc3ccccc3C2)nc(Nc2ccc(F)cc2)c1C.Cl [Example 75, 5,6-dimethyl-4-(4-fluorophenylamino)-2-(1,2,3,4-tetrahydroisoquinolin-2-yl)pyrimidine hydrochloride]	–	1200	15	66.6	1.62	1.20	1.3
Cc1nc(N(C)c2ccccc2)nc(N2CCc3ccccc3C2)c1C.Cl [Example 43, 5,6-dimethyl-2-(N-methylphenylamino)-4-(1,2,3,4-tetrahydroisoquinolin-2-yl)pyrimidine hydrochloride]	–	500	6	62	0.59	0.82	0.7
